Assay results taken from patent US20050169863A1, “2-Thioacetamide compositions for stimulating the growth of keratin fibers and/or for reducing loss thereof” (L'OREAL, priority 2003, published 2005).

Tests used:
15-PGDH = target: T1, 15-PGDH (Homo sapiens, UniProt P15428); experiment: Test on 15-PGDH (spectrophotometric, 340 nm, PGE2/β-NAD); assay type: biochemical; conditions: for Inhibition of 15-PGDH % inhibition at 50 μm: compound at 50 μm, pH 7.4
T1 construct: made in house
T1 sequence (P15428 1-266): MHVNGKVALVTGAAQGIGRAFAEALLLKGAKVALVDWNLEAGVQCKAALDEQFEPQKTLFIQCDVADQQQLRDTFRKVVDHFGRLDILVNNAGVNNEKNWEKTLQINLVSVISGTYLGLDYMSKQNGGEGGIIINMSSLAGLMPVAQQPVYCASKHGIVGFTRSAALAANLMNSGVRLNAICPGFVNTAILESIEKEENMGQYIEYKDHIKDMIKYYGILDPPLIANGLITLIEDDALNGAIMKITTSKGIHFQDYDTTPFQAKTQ
Procedure: The enzyme 15-PGDH is obtained as described in patent application FR 02/05067 filed in the name of L'Oréal, as a suspension in a medium adjusted to a concentration of 0.3 mg/mL and then blocked at −80° C. For the purposes of the test, this suspension is thawed and stored in ice.
In parallel, a 100 mM, pH 7.4 Tris buffer containing 0.1 mM of dithiothreitol (D5545, Sigma-Aldrich, L'isle D'Abeau Chesne, BP 701, 38297, Saint Quentin Fallavier), 1.5 mM of β-NAD (N6522, Sigma-Aldrich, L'isle D'Abeau Chesne, BP 701, 38297, Saint Quentin Fallavier), and 50 μM of prostaglandin E2 (P4172, Sigma-Aldrich, L'isle D'Abeau Chesne, BP 701, 38297, Saint Quentin Fallavier) is prepared.
(§1) 0.965 ml of this buffer (brought to 37° C. beforehand) is introduced into the cuvette of a spectrophotometer (Perkin-Elmer, Lambda 2) thermostatically maintained at 37° C., the measuring wavelength of which is set at 340 nm. 0.035 mL of enzymatic suspension at 37° C. is introduced into the cuvette concomitantly with the recording (corresponding to an increase in the optical density at 340 nm). The maximum reaction rate is recorded.
The test values (containing the compounds (I)) are compared with the control value (without compound (I)); the results indicated represent the concentration at which the compound of formula (I) reduces the anzymatic activity of 15-PGDH by 50%, namely IC50dh.

PGF synthase (PGFS) = target: T2, PGF synthase (PGFS) (Homo sapiens, UniProt P42330); experiment: Test on PGF synthase (spectrophotometric, 340 nm, 9,10-phenanthrenequinone/β-NADPH); assay type: biochemical; conditions: IC50fs; 37° C., pH 6.5 Tris buffer, 20 μM 9,10-phenanthrenequinone, 100 μM β-NADPH
T2 construct: made in house
T2 sequence (P42330 1-323): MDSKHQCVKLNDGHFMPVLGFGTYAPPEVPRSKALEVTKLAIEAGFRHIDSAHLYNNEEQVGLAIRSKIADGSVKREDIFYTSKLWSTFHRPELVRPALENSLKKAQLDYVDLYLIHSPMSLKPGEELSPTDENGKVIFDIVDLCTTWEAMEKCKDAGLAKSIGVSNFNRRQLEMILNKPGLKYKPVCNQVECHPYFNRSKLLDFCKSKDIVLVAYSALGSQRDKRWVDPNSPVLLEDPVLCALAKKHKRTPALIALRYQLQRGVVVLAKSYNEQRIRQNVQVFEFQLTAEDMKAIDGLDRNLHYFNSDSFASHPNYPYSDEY
Procedure: The enzyme PGFS is obtained as described in document FR-A-02/05067, at a concentration of 0.5 mg/mL, as a suspension in a suitable medium, and blocked at −80° C. For the purposes of the test, this suspension is thawed and stored in ice.
In parallel, a 100 mM, pH 6.5 Tris buffer containing 20 μM of 9,10-phenanthrenequinone* (P2896, Sigma-Aldrich, L'isle D'Abeau Chesne, BP 701, 38297, Saint Quentin Fallavier) and 100 μM of β-NADPH (N1630, Sigma-Aldrich, L'isle D'Abeau Chesne, BP 701, 38297, Saint Quentin Fallavier) is prepared in a brown flask (protected from light).
*A stock solution with a titre of 1 mM is prepared in absolute ethanol and brought to 40° C.; the flask is placed in an ultrasound cuvette to facilitate the dissolution of the product.
as §1, with “0.950 mL” for “0.965 ml”, “0.05” for “0.035”, “a reduction” for “an increase”, “recorded. […]” for “recorded.”

IC50 (15-PGDH; IC50dh, 37° C., pH 7.4 Tris buffer, 50 μM prostaglandin E2, 1.5 mM β-NAD, read-out: Inhibition of 15-PGDH IC50) [µM]	Inhibition of 15-PGDH % inhibition at 50 μm (15-PGDH; 37° C.) [%]	IC50fs/IC50dh ratio (15-PGDH; selectivity: PGF synthase IC50 over 15-PGDH IC50)	IC50 (PGF synthase (PGFS)) [µM]	SMILES
5	89	greater than 10	≥ 50	O=C(CSc1nc2ccccc2s1)NC1CCCC1 [Compound 1]
	30			CC(=O)c1ccc(C#N)c(SCC(=O)Nc2cc(Cl)cc(Cl)c2)n1 [Compound 2]
	26			O=C(CSc1nnc2sc3ccccc3n12)Nc1ccc(Br)cc1 [Compound 3]
